The structures appear in SMILES notation. Counter-ions that a name gives are not always drawn.

The test system of the first assay is human basophils. Put plainly: Inhibition of histamine release from immunologically stimulated human basophils. The class given is cell-based. Particulars: Homo sapiens, concentration causing 50% inhibition of histamine release, by linear regression; active if IC50 ≦ 48 µM. The method in brief:
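Leukocytes from sedimented human blood, washed in Tris-A and resuspended in Tris-ACM, were challenged with anti-IgE or antigen, with or without compound, for 60 min at 37 °C. Released histamine was measured fluorometrically after OPT derivatization and expressed as percent of total (perchloric acid lysate), corrected for spontaneous release.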
`Cc1cc(C)cc(Nc2nccc(-c3cccnc3)n2)c1` [N-(3,5-Dimethylphenyl)-4-(3-pyridinyl)-2-pyrimidinamine, sulfate]: the half-inhibitory concentration (IC50) was determined as 3000 nM.

Staying with this assay, now noted: Homo sapiens, concentration causing 50% inhibition of histamine release, by linear regression; active if IC50 ≦ 48 µM; read-out: IC50.
As to `Cc1cccc(Nc2nccc(-c3ccc[nH]3)n2)c1` [N-(3-Methylphenyl)-4-(1H-pyrrol-2-yl)-2-pyrimidinamine], the IC50 stood at 11100 nM.
As for `CN(C)CCCOc1ccc(Nc2nccc(-c3ccncc3)n2)cc1` [N-[4-[3-(Dimethylamino)propoxy]phenyl]-4-(4-pyridinyl)-2-pyrimidinamine], the half-inhibitory concentration (IC50) was determined as 1300 nM.
For `COc1cccc(Nc2nccc(-c3ccc(C)s3)n2)c1` [N-(3-Methoxyphenyl)-4-(5-methyl-2-thienyl)-2-pyrimidinamine], the IC50 is 2300 nM.
With `CCOC(=O)C(=O)N(c1ccccc1)c1nccc(-c2ccncc2)n1` [Oxo[phenyl[4-(4-pyridinyl)-2-pyrimidinyl]amino]acetic acid, ethyl ester], the concentration for half-maximal inhibition (IC50) came out at 2100 nM.
With `Fc1cccc(Nc2nccc(-c3ccncc3)n2)c1` [N-(3-Fluorophenyl)-4-(4-pyridinyl)-2-pyrimidinamine], the IC50 worked out at 700 nM.
As for `CC(N)c1cccc(Nc2nccc(-c3cccnc3)n2)c1` (centres unmarked) [N-[3-(1-Aminoethyl)phenyl)-4-(3-pyridinyl)-2-pyrimidinanine, trihydrochloride], the IC50 was 5100 nM.
With `NS(=O)(=O)c1ccc(Nc2nccc(-c3cccnc3)n2)cc1` [4-[[4-(3-pyridinyl)-2-pyrimidinyl]amino]benzenesulfonamide], the 50% inhibitory concentration (IC50) is 200 nM.
As to `CCN(CC)c1ccc(Nc2nccc(-c3ccco3)n2)cc1` [N,N-Diethyl-N'-[4-(2-furanyl)-2-pyrimidinyl]-1,4-benzenediamine], the IC50 was 3400 nM.
Same read-out and setting: the figure for `Cc1ccc(-c2ccnc(Nc3cccc(N(C)C)c3)n2)s1` [N,N-Dimethyl-N'-[4-(5-methyl-2-thienyl)-2-pyrimidinyl]-1,3-benzenediamine] is 5700 nM; for `Cc1cc(-c2ccccn2)nc(Nc2ccc(N(C)C)cc2)n1` [N,N-Dimethyl-N'-[4-methyl-6-(2-pyridinyl)-2-pyrimidinyl]-1,4-benzenediamine] it is 31800 nM.
Turning to `CN(C)c1ccc(Nc2nccc(-c3cccs3)n2)cc1` [N,N-Dimethyl-N'-[4-(2-thienyl)-2-pyrimidinyl]-1,4-benzenediamine], the IC50 turned out to be 600 nM.
As for `CC(=O)Nc1ccc(Nc2nccc(-c3cccs3)n2)cc1` [N-[4-[[4-(2-Thienyl)-2-pyrimidinyl]amino]-phenyl]acetamide], the IC50 came to 200 nM.
The same measure, in the same setting: the value for `Cc1cccc(Nc2nccc(-c3cccs3)n2)c1` [N-(3-Methylphenyl)-4-(2-thienyl)-2-pyrimidinamine] was 300 nM; that for `COc1cccc(Nc2nccc(-c3ccc(C)o3)n2)c1` [N-(3-Methoxyphenyl)-4-(5-methyl-2-furanyl)-2-pyrimidinamine] was 1200 nM; that for `Cc1cccc(Nc2nccc(-c3cc4ccccc4[nH]3)n2)c1` [4-(1H-Indol-2-yl)-N-(3-methylphenyl)-2-pyrimidinamine] was 2200 nM.
Regarding `Cc1cc(-c2ccnc(Nc3ccccc3)n2)c(C)o1` [4-(2,5-Dimethyl-3-furanyl)-N-phenyl-2-pyrimidinamine], the IC50 was 2000 nM.
The same measure, in the same setting: the figure for `CC(=O)N(C)c1ccc(Nc2nccc(-c3cccnc3)n2)cc1` [N-Methyl-N-[4-[[4-(3-pyridinyl)-2-pyrimidinyl]amino]phenyl]acetamide] is 1100 nM; for `c1ccc(Nc2nccc(-c3ccco3)n2)cc1` [4-(2-Furanyl)-N-phenyl-2-pyrimidinamine] it is 48000 nM; for `Nc1cccc(Nc2nccc(-c3cccnc3)n2)c1` [N-[4-(3-Pyridinyl)-2-pyrimidinyl]-1,3-benzenediamine, dihydrochloride] it is 400 nM.
For the compound `c1ccc(-c2ccnc(Nc3cccc(-n4ccnc4)c3)n2)nc1` [N-[3-(1H-Imidazol-1-yl)phenyl]-4-(2-pyridinyl)-2-pyrimidinamine], the IC50 came out at 100 nM.
For the compound `CNc1ccc(Nc2nccc(-c3ccccn3)n2)cc1` [N-Methyl-N'-[4-(2-pyridinyl)-2-pyrimidinyl]-1,4-benzenediamine], the IC50 amounted to 1400 nM.
`c1ccc(Nc2nccc(-c3cccs3)n2)cc1` [N-Phenyl-4-(2-thienyl)-2-pyrimidinamine]: the IC50 amounted to 31700 nM.
Turning to `CCc1cccc(Nc2nccc(-c3cccnc3)n2)c1` [N-(3-Ethylphenyl)-4-(3-pyridinyl)-2-pyrimidinamine], the IC50 was determined as 1700 nM.
Regarding `CCc1cccc(Nc2nccc(-c3ccncc3)n2)c1` [N-(3-Ethylphenyl)-4-(4-pyridinyl)-2-pyrimidinamine], the IC50 came to 10600 nM.
As to `c1ccc(Nc2nccc(-c3c[nH]c4ccccc34)n2)cc1` [4-(1H-Indol-3-yl)-N-phenyl-2-pyrimidinamine], the IC50 amounted to 3000 nM.
Turning to `Oc1ccc(Nc2nccc(-c3ccncc3)n2)cc1` [4-[[4-(4-Pyridinyl)-2-primidinyl]amino]phenol], the IC50 stood at 3300 nM.
As to `CC(=O)Nc1ccc(Nc2nccc(-c3cccnc3)n2)cc1C`, the half-inhibitory concentration (IC50) came out at 1800 nM.
On to `CNC(=O)c1ccc(Nc2nccc(-c3cccnc3)n2)cc1` [N-Methyl-4-[[4-(3-pyridinyl)-2-pyrimidinyl]amino]benzamide], for which the IC50 was determined as 4600 nM.
Regarding `COc1cccc(Nc2nccc(-c3cc(C)oc3C)n2)c1` [N-(3-Methoxyphenyl)-4-(2,5-dimethyl-3-furanyl)-2-pyrimidinamine], the IC50 turned out to be 5800 nM.
On the same count and under the same terms, the value for `NS(=O)(=O)c1cccc(Nc2nccc(-c3cccnc3)n2)c1` [3-[[4-(3-Pyridinyl)-2-pyrimidinyl]amino]benzenesulfonamide] was 200 nM; that for `COc1ccc(Nc2nccc(-c3ccsc3)n2)cc1` [N-(4-Methoxyphenyl)-4-(3-thienyl)-2-pyrimidinamine] was 15600 nM.
On the same count and under the same terms, the value for `CCN(CC)c1ccc(Nc2nccc(-c3cccnc3)n2)cc1` [N,N-Diethyl-N'-[4-(3-pyridinyl)-2-pyrimidinyl]-1,4-benzenediamine] was 1700 nM; that for `CC(=O)Nc1ccc(Nc2nccc(-c3ccncc3)n2)cc1` [N-[4-[[4-(4-Pyridinyl)-2-pyrimidinyl]amino]-phenyl]acetamide] was 5300 nM.
On the same count and under the same terms, the figure for `CCN(CC)c1ccc(Nc2nccc(-c3ccncc3)n2)cc1` [N,N-Diethyl-N'-[4-(4-pyridinyl)-2-pyrimidinyl]-1,4-benzenediamine] is 1100 nM.
For the compound `COc1ccccc1Nc1nccc(-c2cccnc2)n1` [N-(2-Methoxyphenyl)-4-(3-pyridinyl)-2-pyrimidinamine], the IC50 amounted to 9800 nM.
The same measure, in the same setting: the figure for `CCc1ccc(Nc2ncc(C)c(-c3ccncc3)n2)cc1` [N-(4-Ethylphenyl)-5-methyl-4-(4-pyridinyl)-2-pyrimidinamine] is below 48000 nM.
With `Cc1ccc(Nc2nccc(-c3cccnc3)n2)cc1Cl` [N-(3-Chloro-4-methylphenyl)-4-(3-pyridinyl)-2-pyrimidinamine], the IC50 came out at 9300 nM.
As for `Oc1ccccc1Nc1nccc(-c2cccnc2)n1` [2-[[4-(3-Pyridinyl)-2-pyrimidinyl]amino]phenol], the IC50 was found to be 23500 nM.
For `Cc1cnc(Nc2ccc(N(C)C)cc2)nc1-c1ccco1` [N'-[4-(2-Furanyl)-5-methyl-2-pyrimidinyl]-N,N-dimethyl-1,4-benzenediamine], the half-maximal inhibitory concentration (IC50) turned out to be 6100 nM.
Same read-out and setting: the figure for `CN1CCN(c2ccc(Nc3nccc(-c4cccnc4)n3)cc2)CC1` [N-[4-(4-Methyl-1-piperazinyl)phenyl]-4-(3-pyridinyl)-2-pyrimidinamine] is 1500 nM; for `FC(F)(F)c1cccc(Nc2nccc(-c3ccccn3)n2)c1` [4-(2-Pyridinyl)-N-[3-(trifluoromethyl)phenyl]-2-pyrimidinamine] it is 2900 nM.
Turning to `FC(F)(F)c1cccc(Nc2nccc(-c3ccco3)n2)c1` [4-(2-Furanyl)-N-[3-(trifluoromethyl)phenyl]-2-pyrimidinamine], the IC50 was below 48000 nM.
In the case of `Brc1ccc(Nc2nccc(-c3cccnc3)n2)cc1` [N-(4-Bromophenyl)-4-(3-pyridinyl)-2-pyrimidinamine], the IC50 was determined as 2300 nM.
Turning to `Fc1cccc(F)c1Nc1nccc(-c2cccnc2)n1` [N-(2,6-Difluorophenyl)-4-(3-pyridinyl)-2-pyrimidinamine], the IC50 is 22000 nM.
As for `CCc1ccc(Nc2nccc(-c3cnccn3)n2)cc1` [N-(4-Ethylphenyl)-4-pyrazinyl-2-pyrimidinamine], the 50% inhibitory concentration (IC50) stood at 2800 nM.

Staying with this assay, now noted: concentration causing 50% inhibition of histamine release, by linear regression; active if IC50 ≦ 48 µM; phosphate; read-out: IC50.
In the case of `Cc1cc(C)cc(Nc2nccc(-c3cccnc3)n2)c1` [N-(3,5-Dimethylphenyl)-4-(3-pyridinyl)-2-pyrimidinamine, phosphate], the IC50 worked out at 3000 nM.
In the case of `c1ccc(Nc2nccc(-c3cccnc3)n2)cc1` [N-Phenyl-4-(3-pyridinyl)-2-pyrimidinamine, phosphate], the IC50 came to 2700 nM.
For `Cc1cc(C)cc(Nc2nccc(-c3ccccn3)n2)c1` [N-(3,5-Dimethylphenyl)-4-(2-pyridinyl)-2-pyrimidinamine, phosphate], the IC50 worked out at 300 nM.

Still in this assay, the particulars now being: concentration causing 50% inhibition of histamine release, by linear regression; active if IC50 ≦ 48 µM; read-out: IC50.
As for `c1ccc(Nc2nccc(-c3cccnc3)n2)cc1` [N-Phenyl-4-(3-pyridinyl)-2-pyrimidinamine], the IC50 came out at 900 nM.
Same read-out and setting: the figure for `Nc1ccc(Nc2nccc(-c3ccncc3)n2)cc1` [N-[4-(4-Pyridinyl)-2-pyrimidinyl)-1,4-benzenediamine] is 2400 nM.

The same assay, now with this note: concentration causing 50% inhibition of histamine release, by linear regression; active if IC50 ≦ 48 µM; trihydrochloride; read-out: IC50.
Regarding `CN(C)c1ccc(Nc2nccc(-c3ccncc3)n2)cc1` [N,N-Dimethyl-N'-[4-(4-pyridinyl)-2-pyrimidinyl]-1,4-benzenediamine, trihydrochloride], the IC50 was found to be 400 nM.
As for `CN(C)c1ccc(Nc2nccc(-c3cccnc3)n2)cc1` [N,N-Dimethyl-N'-[4-(3-pyridinyl)-2-pyrimidinyl]-1,4-benzenediamine, trihydrochloride], the IC50 came out at 1500 nM.

As usually defined, the IC50 is the midpoint of a concentration-inhibition curve.

Values taken from patent EP0233461B2, “4,5,6-Substituted-2-pyrimidinamines” (AMERICAN CYANAMID COMPANY, priority 1986, dated 1987).
